The record followed here is patent US11571416B2, “Amodiaquine analogs and methods of uses thereof” (priority 2017, dated 2023).

The subject of data set [1] is EBOV-GFP (recombinant Ebolavirus encoding a GFP reporter gene). Briefly: microbe, parasite or virus in culture. Format: cell-based. The conditions noted are these: for IC50: Orthoebolavirus.
Data set [2] can be described thus: Cytotoxicity, CellTiter-Glo Luminescent Cell Viability Assay. The note with it: human, Huh7 cells. A general note: In ATP-based viability assays light output follows the ATP content of the culture.

The term IC50 denotes the concentration that gives 50% inhibition. On to `C#CCN(CC#C)Cc1cc(Nc2ccnc3cc(Cl)ccc23)ccc1O` [Compound 1, 4-(7-chloroquinolin-4-ylamino)-2-bis(2-propyne-1-yl)aminomethylphenol], for which, in data set [1], the “antiviral activity / potency in words” value is listed as “reduced antiviral activity”. Moreover, the concentration for half-maximal inhibition (IC50) in data set [1] (Huh-7, 24 h) came out at 5.78 ± 1.49 µM.

As for `CCN(CC)Cc1cc(Nc2ccnc3cc(C(F)(F)F)ccc23)ccc1O` [Compound 2], the IC50 in data set [1] (Huh-7, 24 h) turned out to be 5.87 ± 1.46 µM.

As for `CN(Cc1cc(Nc2ccnc3cc(Cl)ccc23)ccc1O)c1ccccc1` [Compound 3], the “antiviral activity / potency in words” value in data set [1] is “reduced antiviral activity”. Further, in data set [1] (Huh-7, 24 h), the half-inhibitory concentration (IC50) was 6.39 ± 0.93 µM.

`CCN(CC)Cc1cc(Nc2ccnc3cc(Br)ccc23)ccc1O` [Compound 4, 4-(7-bromoquinolin-4-ylamino)-2-diethylamino-methylphenol]: in data set [1], the “fold potency relative to amodiaquine” value amounted to 1.4 fold. Also, in data set [1] (Huh-7, 24 h), the IC50 came to 1.55 ± 0.14 µM.

With `CCN(CC)Cc1cc(Nc2ccnc3cc(F)ccc23)ccc1O` [Compound 5, 4-(7-fluoroquinolin-4-ylamino)-2-diethylaminomethylphenol], the “antiviral activity / potency in words” value in data set [1] is listed as “weaker than amiodiaquine”. In data set [1] (Huh-7, 24 h), the IC50 worked out at 2.78 ± 0.28 µM.

`CCN(CC)Cc1cc(Nc2c3ccccc3nc3ccccc23)ccc1O` [Compound 6, 4-(9-acridinylamino)-2-[(diethylamino)methyl]phenol]: the IC50 in data set [1] (Huh-7, 24 h) is 1.64 ± 0.22 µM.

In general, CC50 refers to the concentration at which the toxic effect on the cells reaches its halfway point. `CC(C)N(C)Cc1cc(Nc2ccnc3cc(Cl)ccc23)ccc1O` [Compound 8, 4-(7-chloroquinolin-4-ylamino)-2-(isopropylmethylamino)methylphenol]: the Selectivity index in data set [1] was found to be 27. The IC50 in data set [1] (Huh-7) came out at 1.46 µM; in data set [1] (Huh-7, 24 h) it was 1.46 ± 0.14 µM. This compound also came in with a CC50 at 24 h in data set [2] of 39.2 µM.

As to `CC(C)(C)NCc1cc(Nc2ccnc3cc(Cl)ccc23)ccc1O` [Compound 9, 4-(7-chloroquinolin-4-ylamino)-2-tert-butylaminomethylphenol], in data set [1], the Selectivity index came to 22. For the same compound, the IC50 in data set [1] (Huh-7) amounted to 1.21 µM; in data set [1] (Huh-7, 24 h), 1.21 ± 0.09 µM. Half-maximal cytotoxicity in data set [2] (CC50 at 24 h) was put at 26.1 µM.

In the case of `CN(C)Cc1cc(Nc2ccnc3cc(Cl)ccc23)ccc1O` [Compound 10, 4-(7-chloroquinolin-4-ylamino)-2-dimethylaminomethylphenol], the concentration for half-maximal inhibition (IC50) in data set [1] (Huh-7, 24 h) was found to be 2.14 ± 0.21 µM.

Take `CCN(Cc1cc(Nc2ccnc3cc(Cl)ccc23)ccc1O)C(C)C` [Compound 11, 4-(7-chloroquinolin-4-ylamino)-2-(ethylisopropylamino)methylphenol]: in data set [1], the Selectivity index came to 41. Besides, the IC50 in data set [1] (Huh-7) amounted to 1.46 µM; in data set [1] (Huh-7, 24 h) it was 1.46 ± 0.15 µM. This compound also gave a CC50 at 24 h in data set [2] of 60.5 µM.

Turning to `CCN(CC)Cc1cc(Nc2ccnc3ccccc23)ccc1O` [Compound 12, 2-[(diethylamino)methyl]-4-(quinolin-4-ylamino)phenol], the IC50 in data set [1] (Huh-7, 24 h) amounted to 2.14 ± 0.18 µM.

Take `CN1CCN(Cc2cc(Nc3ccnc4cc(Cl)ccc34)ccc2O)CC1` [Compound 13, 4-(7-chloroquinolin-4-ylamino)-2-(4-methyl-1-piperazinyl)methylphenol]: the “antiviral activity / potency in words” value in data set [1] is listed as “did not decrease potency”. The IC50 in data set [1] (Huh-7, 24 h) was found to be 1.68 ± 0.19 µM.

In the case of `CCCN(C)Cc1cc(Nc2ccnc3cc(Cl)ccc23)ccc1O` [Compound 14, 4-(7-chloroquinolin-4-ylamino)-2-(methylpropylamino)methylphenol], the Selectivity index in data set [1] was more than 82. The IC50 in data set [1] (Huh-7) was 1.22 µM; in data set [1] (Huh-7, 24 h), 1.22 ± 0.11 µM. In data set [2], this compound showed a CC50 at 24 h of more than 100 µM.

In the case of `CN(Cc1cc(Nc2ccnc3cc(Cl)ccc23)ccc1O)C(C)(C)C` [Compound 15, 4-(7-chloroquinolin-4-ylamino)-2-(tert-butylmethylamino)methylphenol], the Selectivity index in data set [1] turned out to be 33. Also, the IC50 in data set [1] (Huh-7) was found to be 1.28 µM; in data set [1] (Huh-7, 24 h), 1.28 ± 0.07 µM. Moreover, in data set [2], the midpoint of cytotoxicity, the CC50 at 24 h, lay at 41.8 µM.

Consider `CCN(C)Cc1cc(Nc2ccnc3cc(Cl)ccc23)ccc1O` [Compound 16, 4-(7-chloroquinolin-4-ylamino)-2-(ethylmethylamino)methylphenol], for which, in data set [1] (Huh-7, 24 h), the half-inhibitory concentration (IC50) worked out at 2.08 ± 0.22 µM.

On to `CCN(CCO)Cc1cc(Nc2ccnc3cc(Cl)ccc23)ccc1O` [Compound 17, 4-(7-chloroquinolin-4-ylamino)-2-[ethyl(2-hydroxyethyl)amino]methylphenol], for which the “antiviral activity / potency in words” value in data set [1] was “did not decrease potency”. In data set [1] (Huh-7, 24 h), the IC50 stood at 1.77 ± 0.18 µM.

For the compound `Oc1ccc(Nc2ccnc3cc(Cl)ccc23)cc1CN1CCCC(O)C1` (centres unmarked) [Compound 19, 4-(7-chloroquinolin-4-ylamino)-2-(3-hydroxy-1-piperidinyl)methylphenol], the “antiviral activity / potency in words” value in data set [1] was “did not decrease potency”. Moreover, the IC50 in data set [1] (Huh-7, 24 h) was found to be 1.8 ± 0.28 µM.

Regarding `CCN(CC)Cc1cc(Nc2ccnc3cc(Cl)ccc23)cc(-c2ccc(Cl)cc2)c1O` [Compound 20, 6-(4-chlorophenyl)-4-(7-chloroquinolin-4-ylamino)-2-diethylaminomethylphenol], in data set [1], the Selectivity index is given as 15 and the “fold potency relative to amodiaquine” value is recorded as 1.6 fold. Moreover, in data set [1] (Huh-7), the IC50 amounted to 1.31 µM. Moreover, the IC50 in data set [1] (Huh-7, 24 h) amounted to 1.31 ± 0.1 µM. Also, the CC50 at 24 h in data set [2] was 19.5 µM.

Take `Oc1ccc(Nc2ccnc3cc(Cl)ccc23)cc1CN1CCCC1` [Compound 21, 4-(7-chloroquinolin-4-ylamino)-2-pyrrolidinylmethylphenol]: in data set [1], the Selectivity index is recorded as 30. The concentration for half-maximal inhibition (IC50) in data set [1] (Huh-7) stood at 1.09 µM; in data set [1] (Huh-7, 24 h) it was 1.09 µM. Also, the cytotoxic concentration (CC50) at 24 h in data set [2] was determined as 33.2 µM.

Regarding `Oc1ccc(Nc2ccnc3cc(Cl)ccc23)cc1CN1CC[C@@H](O)C1` [Compound 22], in data set [1], the “antiviral activity / potency in words” value is given as “did not decrease potency”. Further, in data set [1] (Huh-7, 24 h), the concentration for half-maximal inhibition (IC50) amounted to 1.73 ± 0.09 µM.

As to `CCCCCCNCc1cc(Nc2ccnc3cc(Cl)ccc23)ccc1O` [Compound 23, 4-(7-chloroquinolin-4-ylamino)-2-hexylaminomethylphenol], in data set [1], the Selectivity index is recorded as 18. Also, the IC50 in data set [1] (Huh-7) turned out to be 0.29 µM; in data set [1] (Huh-7, 24 h), 0.29 ± 0.03 µM. In data set [2], this compound registered a CC50 at 24 h of 5.18 µM.

As to `Oc1ccc(Nc2ccnc3cc(Cl)ccc23)cc1CN1CCOCC1` [Compound 24], the IC50 in data set [1] (Huh-7, 24 h) is 6.03 ± 0.41 µM.

Regarding `CCCCN(C)Cc1cc(Nc2ccnc3cc(Cl)ccc23)ccc1O` [Compound 25, 4-(7-chloroquinolin-4-ylamino)-2-(butylmethylamino)methylphenol], the Selectivity index in data set [1] came to 77. The IC50 came to 0.86 µM in data set [1] (Huh-7) and 0.86 ± 0.08 µM in data set [1] (Huh-7, 24 h). Also, the half-maximal cytotoxic concentration (CC50) at 24 h in data set [2] was determined as 65.9 µM.

Turning to `CCCN(CCC)Cc1cc(Nc2ccnc3cc(Cl)ccc23)ccc1O` [Compound 26, 4-(7-chloroquinolin-4-ylamino)-2-dipropylaminomethylphenol], in data set [1], the Selectivity index is recorded as more than 106. The IC50 was 0.94 µM in data set [1] (Huh-7) and 0.94 ± 0.08 µM in data set [1] (Huh-7, 24 h). Further, the half-maximal cytotoxic concentration (CC50) at 24 h in data set [2] is more than 100 µM.

`C=CCN(CC=C)Cc1cc(Nc2ccnc3cc(Cl)ccc23)ccc1O` [Compound 27, 4-(7-chloroquinolin-4-ylamino)-2-bis(2-propen-1-yl)aminomethylphenol]: the half-maximal inhibitory concentration (IC50) in data set [1] (Huh-7, 24 h) is 2.32 ± 0.32 µM.

For `CCCN(CC)Cc1cc(Nc2ccnc3cc(Cl)ccc23)ccc1O` [Compound 29, 4-(7-chloroquinolin-4-ylamino)-2-(ethylpropylamino)methylphenol], the Selectivity index in data set [1] is given as more than 72. For the same compound, the half-maximal inhibitory concentration (IC50) came to 1.39 µM in data set [1] (Huh-7) and 1.39 ± 0.13 µM in data set [1] (Huh-7, 24 h). The compound further had a CC50 at 24 h in data set [2] of more than 100 µM.
